Like-named read-outs stand apart in the source and are kept apart here.
Legend:
Assay type in all cases: cell-based
[1] = molecular target: T1, hGCGR (Homo sapiens, UniProt P47871); experiment: Functional cAMP formation (HTRF) in HEK-293 clonal cells expressing hGCGR, 0.1% bovine casein, without or with 1.0% human serum albumin; settings: cAMP, 37° C.
T1 construct: expressed in transfected cells
In short: (§1)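 Readings of the HTRF 665/620 nm ratio, which falls as cAMP rises, were converted to nM cAMP using a standard curve after 30 min peptide exposure at 37° C.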

[2] = molecular target: hGLP-1R (Homo sapiens, UniProt P43220); experiment: Functional cAMP formation (HTRF) in HEK-293 clonal cells expressing hGLP-1R, 0.1% bovine casein, without or with 1.0% human serum albumin; parameters: expressed in transfected cells; settings: for Emax: percent of maximal response to GLP-1(7-36)NH2; for EC50: cAMP
Chain of hGLP-1R (P43220 24-463): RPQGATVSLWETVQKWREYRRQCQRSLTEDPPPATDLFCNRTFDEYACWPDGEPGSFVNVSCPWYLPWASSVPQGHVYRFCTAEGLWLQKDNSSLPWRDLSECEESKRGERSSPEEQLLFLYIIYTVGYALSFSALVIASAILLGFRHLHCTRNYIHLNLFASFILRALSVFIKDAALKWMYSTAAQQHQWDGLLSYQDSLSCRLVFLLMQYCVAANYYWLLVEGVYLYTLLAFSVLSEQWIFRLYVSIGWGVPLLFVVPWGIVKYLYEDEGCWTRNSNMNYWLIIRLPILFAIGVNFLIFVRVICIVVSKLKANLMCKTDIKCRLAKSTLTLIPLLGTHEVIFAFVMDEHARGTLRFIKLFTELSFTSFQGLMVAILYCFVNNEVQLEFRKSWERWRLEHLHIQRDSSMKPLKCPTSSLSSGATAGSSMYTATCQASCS
In short: as §1

[3] = molecular target: T2, hGIPR (Homo sapiens, UniProt P48546); experiment: Functional cAMP formation (HTRF) in HEK-293 clonal cells expressing hGIPR, 0.1% bovine casein, without or with 1.0% human serum albumin; settings: for Emax: percent of maximal response to GIP(1-42)NH2; for EC50: cAMP, 0.1% bovine casein (no human serum albumin), geometric mean
T2 construct: expressed in transfected cells
T2 sequence (P48546 22-466): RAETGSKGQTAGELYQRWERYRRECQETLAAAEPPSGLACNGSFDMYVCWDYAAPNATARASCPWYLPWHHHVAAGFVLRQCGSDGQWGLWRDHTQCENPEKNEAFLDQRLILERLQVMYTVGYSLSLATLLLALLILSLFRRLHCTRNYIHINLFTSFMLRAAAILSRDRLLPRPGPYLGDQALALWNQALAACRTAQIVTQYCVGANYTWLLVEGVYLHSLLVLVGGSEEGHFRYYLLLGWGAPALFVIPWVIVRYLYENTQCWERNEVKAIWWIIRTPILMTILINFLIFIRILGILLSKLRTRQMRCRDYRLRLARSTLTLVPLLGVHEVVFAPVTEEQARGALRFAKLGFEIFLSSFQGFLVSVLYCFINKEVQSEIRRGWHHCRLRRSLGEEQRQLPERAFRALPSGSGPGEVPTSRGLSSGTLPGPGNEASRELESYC
In short: as §1

[4] = 0.1% bovine casein (no human serum albumin), geometric mean, read-out: hGCGR EC50, nM (SEM, n)
[5] = 0.1% bovine casein and 1.0% human serum albumin, geometric mean (SEM, n), read-out: hGCGR EC50, nM (SEM, n)
[6] = 37° C., 0.1% bovine casein (no human serum albumin), geometric mean, read-out: hGLP-1R EC50, nM (SEM, n)
[7] = HEK293, cAMP, 37° C., 0.1% bovine casein and 1.0% human serum albumin, read-out: hGIPR Emax, % ± SEM
[8] = HEK293, cAMP, 37° C., 0.1% bovine casein, arithmetic mean, read-out: hGIPR Emax, % ± SEM
[9] = 37° C., read-out: hGIPR EC50, nM (SEM, n)
[10] = HEK293, cAMP, 37° C., 0.1% bovine casein and 1.0% human serum albumin, read-out: hGLP-1R Emax, % ± SEM

T1 sequence (P47871 26-477): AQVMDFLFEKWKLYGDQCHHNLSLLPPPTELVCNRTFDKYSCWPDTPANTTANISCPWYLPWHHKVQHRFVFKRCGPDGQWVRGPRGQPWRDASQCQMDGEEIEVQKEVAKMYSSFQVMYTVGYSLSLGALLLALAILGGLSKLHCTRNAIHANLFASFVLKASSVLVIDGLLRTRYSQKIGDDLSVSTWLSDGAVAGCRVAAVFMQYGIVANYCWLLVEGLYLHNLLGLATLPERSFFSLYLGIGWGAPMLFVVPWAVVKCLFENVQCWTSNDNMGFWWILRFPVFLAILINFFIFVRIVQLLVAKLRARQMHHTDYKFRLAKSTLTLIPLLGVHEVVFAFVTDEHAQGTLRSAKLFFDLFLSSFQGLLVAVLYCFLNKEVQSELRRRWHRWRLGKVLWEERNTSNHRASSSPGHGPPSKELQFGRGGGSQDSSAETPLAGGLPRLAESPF

Compound	EC50 ([1]; hGCGR EC50, nM (SEM, n), 0.1% bovine casein (no human serum albumin), geometric mean) [nM]	EC50 ([1]; hGCGR EC50, nM (SEM, n), 0.1% bovine casein and 1.0% human serum albumin, geometric mean (SEM, n)) [nM]	Emax ([2]; HEK293, read-out: hGLP-1R Emax, % ± SEM, cAMP, 37° C., 0.1% bovine casein, arithmetic mean) [%]	EC50 ([2]; hGLP-1R EC50, nM (SEM, n), 37° C., 0.1% bovine casein (no human serum albumin), geometric mean) [nM]	Emax ([3]; HEK293, read-out: hGIPR Emax, % ± SEM, cAMP, 37° C., 0.1% bovine casein and 1.0% human serum albumin) [%]	Emax ([3]; HEK293, read-out: hGIPR Emax, % ± SEM, cAMP, 37° C., 0.1% bovine casein, arithmetic mean) [%]	EC50 ([3]; hGIPR EC50, nM (SEM, n), 37° C.) [nM]	EC50 [1, 4] [nM]	EC50 [1, 5] [nM]	EC50 [2, 6] [nM]	EC50 ([2]; 37° C., 0.1% bovine casein and 1.0% human serum albumin, geometric mean (SEM, n), read-out: hGLP-1R EC50, nM (SEM, n)) [nM]	Emax [3, 7] [%]	Emax [3, 8] [%]	EC50 [3, 9] [nM]	Emax [2, 10] [%]	Emax ([2]; HEK293, cAMP, 37° C., 0.1% bovine casein, arithmetic mean, read-out: hGLP-1R Emax, % ± SEM) [%]
CC[C@H](C)[C@H](NC(=O)[C@H](CC(C)C)NC(=O)[C@](C)(Cc1ccc(O)cc1)NC(=O)[C@@H](CCC(=O)O)NC(=O)[C@@H](NC(=O)[C@H](Cc1ccccc1)NC(=O)[C@H](CCC(=O)O)NC(=O)C(C)(C)NC(=O)[C@H](CCC(N)=O)NC(=O)[C@H](C)NC(=O)[C@H](CCCCNC(=O)COCCOCCNC(=O)COCCOCCNC(=O)CCCCCCCCCOc1ccc(C(=O)O)cc1)NC(=O)[C@H](CCCN)NC(=O)[C@H](CC(=O)O)NC(=O)[C@H](CC(C)C)NC(=O)[C@](C)(CC(C)C)NC(=O)[C@@H](NC(=O)C(C)(C)NC(=O)[C@@H](NC(=O)[C@H](CC(=O)O)NC(=O)[C@H](CO)NC(=O)[C@@H](NC(=O)[C@](C)(Cc1ccccc1F)NC(=O)[C@@H](NC(=O)CNC(=O)[C@H](CCC(=O)O)NC(=O)C(C)(C)NC(=O)[C@@H](N)Cc1ccc(O)cc1)[C@@H](C)O)[C@@H](C)O)C(C)C)[C@@H](C)CC)[C@@H](C)CC)C(=O)N[C@@H](CCCCNC(=O)COCCOCCNC(=O)COCCOCCNC(=O)CCCCCCCCCOc1ccc(C(=O)O)cc1)C(=O)NCC(=O)NCC(=O)N1CCC[C@H]1C(=O)N[C@@H](CO)C(=O)N[C@@H](CO)C(=O)NCC(=O)N[C@@H](C)C(=O)N1CCC[C@H]1C(=O)N1CCC[C@H]1C(=O)N1CCC[C@H]1C(=O)N[C@@H](CO)C(N)=O [Example 397]	> 9950	> 9950	95.8	0.166	84.5	94.6	0.0293									
CC[C@H](C)[C@H](NC(=O)[C@H](CC(C)C)NC(=O)[C@](C)(Cc1ccc(O)cc1)NC(=O)[C@@H](CCC(=O)O)NC(=O)[C@@H](NC(=O)[C@H](Cc1ccccc1)NC(=O)[C@H](CCCCNC(=O)COCCOCCNC(=O)CC[C@H](NC(=O)CCCCCCCCCCCCC(=O)O)C(=O)O)NC(=O)C(C)(C)NC(=O)[C@H](CCC(N)=O)NC(=O)[C@H](C)NC(=O)[C@H](CCCCNC(=O)COCCOCCNC(=O)CC[C@H](NC(=O)CCCCCCCCCCCCC(=O)O)C(=O)O)NC(=O)[C@H](CCCN)NC(=O)[C@H](CC(=O)O)NC(=O)[C@H](CC(C)C)NC(=O)[C@](C)(CC(C)C)NC(=O)[C@@H](NC(=O)C(C)(C)NC(=O)[C@@H](NC(=O)[C@H](CC(=O)O)NC(=O)[C@H](CO)NC(=O)[C@@H](NC(=O)[C@](C)(Cc1ccccc1F)NC(=O)[C@@H](NC(=O)CNC(=O)[C@H](CCC(=O)O)NC(=O)C(C)(C)NC(=O)[C@@H](N)Cc1ccc(O)cc1)[C@@H](C)O)[C@@H](C)O)C(C)C)[C@@H](C)CC)[C@@H](C)CC)C(=O)N[C@@H](CCC(=O)O)C(=O)NCC(=O)NCC(=O)N1CCC[C@H]1C(=O)N[C@@H](CO)C(=O)N[C@@H](CO)C(=O)NCC(=O)N[C@@H](C)C(=O)N1CCC[C@H]1C(=O)N1CCC[C@H]1C(=O)N1CCC[C@H]1C(=O)N[C@@H](CO)C(N)=O [Example 398]								> 9950	> 9950	0.215	41.3	91.9	97.4	0.0166		
CC[C@H](C)[C@H](NC(=O)[C@H](CC(C)C)NC(=O)[C@](C)(Cc1ccc(O)cc1)NC(=O)[C@@H](CCC(=O)O)NC(=O)[C@@H](NC(=O)[C@H](Cc1ccccc1)NC(=O)[C@H](CCC(=O)O)NC(=O)C(C)(C)NC(=O)[C@H](CCC(N)=O)NC(=O)[C@H](C)NC(=O)[C@H](CCCCNC(=O)COCCOCCNC(=O)CC[C@H](NC(=O)CCCCCCCCCCCCC(=O)O)C(=O)O)NC(=O)[C@H](CCCN)NC(=O)[C@H](CC(=O)O)NC(=O)[C@H](CC(C)C)NC(=O)[C@](C)(CC(C)C)NC(=O)[C@@H](NC(=O)C(C)(C)NC(=O)[C@@H](NC(=O)[C@H](CC(=O)O)NC(=O)[C@H](CO)NC(=O)[C@@H](NC(=O)[C@](C)(Cc1ccccc1F)NC(=O)[C@@H](NC(=O)CNC(=O)[C@H](CCC(=O)O)NC(=O)C(C)(C)NC(=O)[C@@H](N)Cc1ccc(O)cc1)[C@@H](C)O)[C@@H](C)O)C(C)C)[C@@H](C)CC)[C@@H](C)CC)C(=O)N[C@@H](CCCCNC(=O)COCCOCCNC(=O)CC[C@H](NC(=O)CCCCCCCCCCCCC(=O)O)C(=O)O)C(=O)NCC(=O)NCC(=O)N1CCC[C@H]1C(=O)N[C@@H](CO)C(=O)N[C@@H](CO)C(=O)NCC(=O)N[C@@H](C)C(=O)N1CCC[C@H]1C(=O)N1CCC[C@H]1C(=O)N1CCC[C@H]1C(=O)N[C@@H](CO)C(N)=O [Example 399]								> 9950	> 9950	0.259		86.8		0.0186	89.7	91.9
CC[C@H](C)[C@H](NC(=O)[C@H](CCCN)NC(=O)[C@H](CC(=O)O)NC(=O)[C@H](CC(C)C)NC(=O)[C@](C)(CC(C)C)NC(=O)[C@@H](NC(=O)C(C)(C)NC(=O)[C@@H](NC(=O)[C@H](CC(=O)O)NC(=O)[C@H](CO)NC(=O)[C@@H](NC(=O)[C@](C)(Cc1ccccc1F)NC(=O)[C@@H](NC(=O)CNC(=O)[C@H](CCC(=O)O)NC(=O)C(C)(C)NC(=O)[C@@H](N)Cc1ccc(O)cc1)[C@@H](C)O)[C@@H](C)O)C(C)C)[C@@H](C)CC)C(=O)N[C@@H](C)C(=O)N[C@@H](CCC(N)=O)C(=O)NC(C)(C)C(=O)N[C@@H](CCC(=O)O)C(=O)N[C@@H](Cc1ccccc1)C(=O)N[C@H](C(=O)N[C@@H](CCCCNC(=O)COCCOCCNC(=O)CC[C@H](NC(=O)CCCCCCCCCCCCC(=O)O)C(=O)O)C(=O)N[C@@](C)(Cc1ccc(O)cc1)C(=O)N[C@@H](CC(C)C)C(=O)N[C@H](C(=O)N[C@@H](CCCCNC(=O)COCCOCCNC(=O)CC[C@H](NC(=O)CCCCCCCCCCCCC(=O)O)C(=O)O)C(=O)NCC(=O)NCC(=O)N1CCC[C@H]1C(=O)N[C@@H](CO)C(=O)N[C@@H](CO)C(=O)NCC(=O)N[C@@H](C)C(=O)N1CCC[C@H]1C(=O)N1CCC[C@H]1C(=O)N1CCC[C@H]1C(=O)N[C@@H](CO)C(N)=O)[C@@H](C)CC)[C@@H](C)CC [Example 400]								> 9950	> 9950	0.708		83.2	98.1	0.0821	109	
CC[C@H](C)[C@H](NC(=O)[C@H](CC(C)C)NC(=O)[C@](C)(Cc1ccc(O)cc1)NC(=O)[C@H](CCCCNC(=O)COCCOCCNC(=O)COCCOCCNC(=O)CC[C@H](NC(=O)CCCCCCCCCCCCC(=O)O)C(=O)O)NC(=O)[C@@H](NC(=O)[C@H](Cc1ccccc1)NC(=O)[C@H](CCCN)NC(=O)C(C)(C)NC(=O)[C@H](CCC(N)=O)NC(=O)[C@H](C)NC(=O)[C@H](CCC(N)=O)NC(=O)[C@H](CCCN)NC(=O)[C@H](CC(=O)O)NC(=O)[C@H](CC(C)C)NC(=O)[C@](C)(CC(C)C)NC(=O)[C@@H](NC(=O)C(C)(C)NC(=O)[C@H](Cc1ccc(O)cc1)NC(=O)[C@H](CC(=O)O)NC(=O)[C@H](CO)NC(=O)[C@@H](NC(=O)[C@](C)(Cc1ccccc1F)NC(=O)[C@@H](NC(=O)CNC(=O)[C@H](CCC(=O)O)NC(=O)C(C)(C)NC(=O)[C@@H](N)Cc1ccc(O)cc1)[C@@H](C)O)[C@@H](C)O)[C@@H](C)CC)[C@@H](C)CC)C(=O)N[C@@H](CCCCNC(=O)COCCOCCNC(=O)COCCOCCNC(=O)CC[C@H](NC(=O)CCCCCCCCCCCCC(=O)O)C(=O)O)C(=O)NCC(=O)NCC(=O)N1CCC[C@H]1C(=O)N[C@@H](CO)C(=O)N[C@@H](CO)C(=O)NCC(=O)N[C@@H](C)C(=O)N1CCC[C@H]1C(=O)N1CCC[C@H]1C(=O)N1CCC[C@H]1C(=O)N[C@@H](CO)C(N)=O [Example 401]								> 9950	> 9950	0.235		83	98.9	0.0112		

Source: US20230265151A1, “GIP/GLP1 CO-AGONIST COMPOUNDS” (priority 2020, published 2023)
